Consider seven molecules from US4120894A, “Sulfo-m-phenylenebis(sulfonylimino)diisophthalic acid salts” (American Cyanamid Company, priority 1977, dated 1978).

One experiment relates to shunt pathway. Nature of the experiment: Test, Code 036 (C-Shunt inhibitor), lysis of human erythrocytes in autologous serum via shunt pathway activated by cobra venom factor. The experiment is classed as cell-based. The conditions noted are these: activity in wells, two-fold serial dilution assay; higher well number indicates higher activity. The text has this: (§1) An active inhibitor protects C2 C1 and C4; (ii) Test, Code 035 (C3-C9 inhibitor) -- This test determines the ability of thee late components of human complement (C3-C9) to lyse EAC 142 in the presence of appropriate dilutions of the test compound. An active inhibitor protects EAC 142 from lysis by human C3-C9; (iii) Test, Code 036 (C-Shunt inhibitor) -- In this test human erythrocytes rendered fragile are lysed in autologous serum via the shunt pathway activated by cobra venom factor in the present of appropriate dilutions of the test compound. Inhibition of the shunt pathway results in failure of lysis; (iv) Forssman Vasculitis Test -- Here, the well known complement dependent lesion, Forssman vasculitis, is produced in guinea pigs by intradermal injection of rabbit anti-Forssman antiserum. […]

Another experiment relates to whole complement. The experiment is described as follows: Complement Level Reduction Test (serum of dosed guinea pigs, capillary tube assay). The experiment is classed as in vivo. The conditions noted are these: 200 mg/kg i.p.
In another experiment the test system is activated human C1. The experiment is described as follows: Test, Code 026 (C1 inhibitor). The experiment is classed as biochemical. The settings on record: activity in wells, two-fold serial dilution assay; higher well number indicates higher activity.
From the text: as §1

Experiment [1] deals with hereditary angioneurotic edema. The settings on record: literature report; cited from earlier work.
The next experiment relates to complement system. The conditions noted are these: literature report; cited from earlier work.
A further experiment has as its system human serum complement. The conditions noted are these: in vitro and in vivo, judged by reduction in total hemolytic complement activity; cited from earlier work.

Where a name gives a salt, the structure may show the parent alone.

Take `O=C(O)c1cc(NS(=O)(=O)c2cc(S(=O)(=O)O)cc(S(=O)(=O)Nc3cc(C(=O)O)cc(C(=O)O)c3)c2)cc(C(=O)O)c1` [5,5'[5-Sulfo-m-phenylenebis(sulfonylimino)]diisophathalic acid sodium salt, compound with ethanol (1:1)]: the “Shunt Inhibition 036 Wells” value in the experiment on shunt pathway is “+1 Wells”. In addition, in the experiment on whole complement (30 min), the “In Vivo Activity (Guinea Pig) % Inhibition, Intraperitoneal, 30 minutes” value was -44%. Also, the “In Vivo Activity (Guinea Pig) % Inhibition, Intraperitoneal, 60 minutes” value in the experiment with whole complement (60 min) was -42%. For the same molecule, the “In Vivo Activity (Guinea Pig) % Inhibition, Intraperitoneal, 120 minutes” value with whole complement (120 min) is -49%. Also, the “C1 026 Wells” value in the experiment on activated human C1 was “+4 Wells”.
In the case of `Cc1ccc(C(=O)Nc2ccc(S(=O)(=O)O)c3cc(S(=O)(=O)O)cc(S(=O)(=O)O)c23)cc1NC(=O)c1cccc(NC(=O)Nc2cccc(C(=O)Nc3cc(C(=O)Nc4ccc(S(=O)(=O)O)c5cc(S(=O)(=O)O)cc(S(=O)(=O)O)c45)ccc3C)c2)c1` [Suramin], in experiment [1], the “treatment of hereditary angioneurotic edema” value (shortened to “treatment”) was “used with success”. Besides, the “anticomplementary effect / complement inhibition” value with complement system is “competitive inhibitor of the complement system”.
On to `Nc1ccc2cc(S(=O)(=O)O)cc(O)c2c1N=Nc1ccc(NC(=O)Nc2ccc(N=Nc3c(N)ccc4cc(S(=O)(=O)O)cc(O)c34)c(S(=O)(=O)O)c2)cc1S(=O)(=O)O` [chlorazol fast pink, 3,3'-ureylenebis-[6-(2-amino-8-hydroxy-6-sulfo-1-naphthylazo)]benzenesulfonic acid, tetrasodium salt], for which the “anticomplementary effect / complement inhibition” value in the experiment with complement system is “anticomplementary effect”.
Regarding `NCCCCCC(=O)O` [epsilon-aminocaproic acid], in experiment [1], the “treatment” value is on record as “used with success”.
On to `NC[C@H]1CC[C@H](C(=O)O)CC1` [tranexamic acid], for which the “treatment” value in experiment [1] is “used with success”.
heparin: the “anticomplementary effect / complement inhibition” value with complement system was “anticomplementary effect”.
In the case of pentosan-poly-sulfoester, the “anticomplementary activity on human serum” value in the experiment with human serum complement was “anticomplementary activity on human serum both in vitro and in vivo”.
